# Reference: PMC7735731, “Application of Magnetic Core–Shell Imprinted Nanoconjugates for the Analysis of Hordenine in Human Plasma-Preliminary Data on Pharmacokinetic Study after Oral Administration” (Journal of Agricultural and Food Chemistry, 2020)
# “And” between values parts separate entries of the source, which are not always exact repeats. Identical values can stand only once.
# Assays:
# [1] = Pharmacokinetic study in healthy volunteers after oral administration of hordenine-rich dietary supplement (plasma, mag-MIP d-SPE, LC-MS/MS); type: in vivo, human
# Method: Quantitative analysis was performed using an Agilent 1260 Infinity system (Agilent Technologies, Santa Clara, CA, United States, https://www.agilent.com), equipped with a degasser, an autosampler, and a binary pump coupled to a QTRAP 4000 hybrid triple quadrupole/linear ion trap mass spectrometer (AB Sciex, Framingham, MA, United States, https://sciex.com). The turbo ion spray source was operated in positive mode. The curtain gas, ion source gas 1, ion source gas 2, and collision gas (all high-purity nitrogen) were set at 345, 207, 276 kPa, and “high” instrument units (4.6 × 10^–5 Torr), respectively. The ion spray voltage and source temperature were 5000 V and 600 °C, respectively. The target compounds were analyzed in multiple reaction monitoring mode. The quantitative multiple reaction monitoring transitions, declustering potential (DP) and collision energy (CE) for hordenine and hordenine-d6 were (m/z) 166 > 121 (DP = 61 V, CE = 21 V) and 172 > 121 (DP = 66 V, CE = 19 V), respectively. […] The column was maintained at 40 °C at the flow rate of 0.5 mL/min. The mobile phases consisted of 20 mM aqueous ammonium acetate as eluent A and acetonitrile with 0.2% formic acid as eluent B. The gradient (% B) was as follows: 0 min 10%, 1 min 10%, 3 min 95%, and 5 min 95%. The reequilibration of the column to the initial conditions lasted 1.5 min.
# For the optimization of the d-SPE process, a mass of 5 mg of mag-MIP was transferred to an Eppendorf tube together with a volume of 300 μL of untreated plasma sample (or in the optimization process: sample diluted with water or sample pretreated with methanol (1:1, v/v)). A sample of plasma pretreated with methanol was centrifuged (10 000g, 5 min) prior to loading to mag-MIP together with 30 μL of IS (c = 50 μg/L). Next, the tube was put on the vortex to provide contact time with the sorbent for 5 min (in the optimization of loading time, the step lasted 5, 15, 30, or 60 min). Then, the supernatant, separated from the sorbent by an external magnetic field, was discarded and the washing step was carried out by applying water, 300 μL of ultrapure water for 0.5 min on the vortex (or in the optimization process, methanol–water 85:15 v/v). The supernatant was removed in the same manner as described above. Finally, the elution took place by adding 500 μL of 5% ammonium hydroxide in methanol. The elution time was set for 5 min (in the optimization process, the step lasted 5, 15, 30, or 60 min). The elution fraction was separated from the sorbent by the application of an external magnetic field. In each optimized step, the recoveries of hordenine were analyzed. The eluate was evaporated to dryness (40 °C, 5 min), reconstituted in a volume of 70 μL of 20% aqueous methanol, and an aliquot of 10 μL was injected into the LC–MS/MS. Each experiment was performed in triplicate. The recovery was calculated by comparing the mean area response of plasma sample spiked before and after extraction.
# Three healthy volunteers (men, aged 25–30 years) were enrolled in this study after obtaining written informed consent. All participants were nonsmokers with body weight no less than 50 kg and body mass index 25.7 ± 3.7 kg/m^2. Their body weights were 80 kg (two volunteers) and 105 kg (one volunteer). Subjects neither consumed alcohol nor received any medication for 2 weeks prior to the start of the study. Hordenine was administered orally in the morning with a dose of 100 mg (in starch capsules) after overnight fasting. Plasma samples of approximately 2 mL were collected (in vials containing di-potassium ethylene diaminetetraacetic acid as an anticoagulant) before and at 20, 30, 45, 60, 75, 90, 120, 180, and 240 min post-dose. After collection, plasma samples were centrifuged at 2000g for 15 min at room temperature and plasma samples were analyzed. […]
# [2] = design: method as in PMID 25880244; conditions: rats, cited from earlier work
# [3] = cited from earlier work
# dopamine D2 receptor = molecular target: dopamine D2 receptor; design: method as in PMID 28281694; conditions: cited from earlier work
# [4] = Stability of the analyte in the biological matrix (human plasma) and the extract; type: in vitro ADME; conditions: for stability in extract in the autosampler: 48 h, 4 °C; for stability after short-term storage at room temperature / stability after freeze–thaw cycles: human plasma; for stability after short-term storage at room temperature: 4 h, 21 ± 2 °C; for stability after freeze–thaw cycles: three cycles at −20 °C storage, 25 °C thawing
# Method: Selectivity was evaluated using six blank plasma samples, which were evaluated for interference from the matrix components in the determination of hordenine. The accuracy and precision of the method were determined within runs (n = 5) and between runs (n = 15, five replicate samples on three separate runs) using quality control (QC) samples (0.1, 25, and 40 μg/L). Accuracy was expressed as percent relative error of the spiked nominal value, whereas precision was expressed as relative standard deviation (RSD). The linearity range was set between 0.05 and 50 μg/L. Eight point calibration lines (n = 3) were constructed by plotting peak area ratios of each targeted analyte to an area of IS versus the nominal concentration of the analyte. LLOQ was selected to give the signal at least five times higher than the signal of blank samples and satisfactory results of accuracy and precision. LLOQ, QCs, and calibration standards were prepared on blank plasma. The matrix effect was evaluated by analyzing low and high QCs using plasma from six different lots and included hemolyzed and hyperlipidemic plasma samples. Matrix factor (MF) was determined by calculating the ratio of the peak area in the presence of matrix (blank plasma spiked with the analyte post extraction) to the peak area in the absence of matrix (pure solution of the analyte). Additionally, the coefficient of variation (CV) of the IS-normalized MF (expressed as the MF of analyte divided by the MF of IS) was presented. All stability studies were performed at low and high QCs. The autosampler stability was determined after 48 h of extract storage in an autosampler (4 ± 0.5 °C). The freeze and thaw stabilities were determined in a process of three freeze–thaw cycles at −20 ± 2 °C storage temperature and 25 ± 0.5 °C thawing temperature, at least 12 h after freezing. The short-term stability was determined after 4 h of storage at room temperature, 21 ± 2 °C. Carryover was studied by injecting blank plasma sample after calibration standard at 40 μg/L
# [5] = Simple allometric scaling of rat t1/2 to human; conditions: from rat t1/2 4.6 ± 1.6 h with t1/2(Human) ∼ 4t1/2(Rat)
# Text: However, further studies are required.
# [6] = four volunteers, 1 L of beer with hordenine content 6.30 ± 0.19 mg/L; cited from earlier work
# [7] = weak base; source not given; cited from earlier work
# [8] = Pharmacokinetic profile of hordenine in plasma after alcohol free beer consumption by one volunteer; type: in vivo, human
# Text: It is known that hordenine levels in plasma after beer consumption are low.[10] Thus, to verify the newly proposed analytical method as well as to reveal its applicability, the evaluation of hordenine pharmacokinetics profiles after beer consumption was also investigated. The results are presented in Supporting Information Section S2.
# Determination of pharmacokinetic profile after beer consumption
# In order to reveal the applicability of new analytical method, the comparative studies of hordenine pharmacokinetic after alcohol free beer consumption was performed. Firstly we confirmed the presence of hordenine in the beverage since no data on hordenine content in alcohol free beer exist. Then the volunteer consumed 0.5 L of beer within 5 min. The blood was collected 10 min., 20 min., 30 min., 45 min., 1 h, 2 h, 4 h, and 6 h after the beginning of beer […]
# Regarding alcohol free beer the hordenine content was 1.3 mg/L for Karmi Classic, 1.2 mg/L for Żywiec, 2.5 mg/L for Heineken zero, 2.3 mg/L for Lech. Thus, for further experiments Heineken zero was selected. […]
# distribution Vz/F 1810 L. We confirmed the results of Sommer et al. (2020) that the Cmax is too low to directly interact with D2 receptors. One of the explanation of the lower Cl/F and Vz/F than obtained for supplement can be higher bioavailability of hordenine form beer than supplements and/or non linear pharmacokinetics. Thus, further study are needed.
# Figure A. Mean plasma concentration-time profile of hordenine after beer consumption by one
# [9] = human plasma, single oral dose 100 mg hordenine, three healthy volunteers, mean
# [10] = male, human, plasma, single oral dose 100 mg hordenine, three healthy volunteers, mean
compound,measurement,setting,value
"CN(C)CCc1ccc(O)cc1 [hordenine, 4-(2-dimethylaminoethyl)phenol]",AUCt,[1]; [9],1390 µg·min/L
same,AUCt norm (body weight normalized),[1]; [9],16.5 µg·min/L/kg
same,AUC∞,[1]; [9],1440 µg·min/L
same,AUC∞ norm (body weight normalized),[1]; [9],17.1 µg·min/L/kg
same,concentration at 1 h,"[1]; male, human, in vivo, plasma collected at 1 h after administration of 100 mg of hordenine, read-out: calculated concentration in test plasma",8.7 ng/mL
same,Cmax,[1]; [10],16.4 ng/mL
same,MRT inf,[1]; [10],1.88 h
same,MRT last,[1]; [10],1.7 h
same,Tmax,[1]; [10],1.08 h
same,CL/F,"[1]; male, human, plasma, single oral dose 100 mg hordenine, three healthy volunteers, mean, read-out: Cl/Fnorm (body weight normalized) (converted)",850 mL/min/kg
same,Vd/F,"[1]; male, human, plasma, single oral dose 100 mg hordenine, three healthy volunteers, mean, read-out: Vz/F (apparent distribution volume)",6000 L
same,Vd/F,"[1]; male, human, plasma, single oral dose 100 mg hordenine, three healthy volunteers, mean, read-out: Vz/Fnorm (body weight normalized)",66 L/kg
same,half-life,"[1]; male, human, plasma, single oral dose 100 mg hordenine, three healthy volunteers, mean, read-out: t1/2 (terminal half-life)",0.9 h
same,Cl/F (apparent plasma clearance),"[1]; single oral dose 100 mg hordenine, three healthy volunteers, mean",4700 ± 1700 L/h and 4700 L/h
same,t1/2 (hordenine elimination),"[2]; oral administration, dose of 15 mg/kg",4.6 ± 1.6 h
same,bioavailability,[2],66.2%
same,blood–brain barrier crossing,[3],can cross the blood–brain barrier
same,EC50,dopamine D2 receptor,0.61 µg/mL
same,stability in extract in the autosampler,[4]; QC1 (0.1 μg/L),94%
same,stability in extract in the autosampler,[4]; QC3 (40 μg/L),110%
same,stability after short-term storage at room temperature,[4]; QC1 (0.1 μg/L),103%
same,stability after freeze–thaw cycles,[4]; QC1 (0.1 μg/L),108%
same,stability after short-term storage at room temperature,[4]; QC3 (40 μg/L),107%
same,stability after freeze–thaw cycles,[4]; QC3 (40 μg/L),104%
same,estimated t1/2(Human) by allometric scaling,[5],1.15 ± 0.4 h
same,maximum plasma concentrations,[6],1.98 to 2.85 µg/L
same,pKa of the strongest bases,[7],9.19
same,apparent oral clearance (Cl/F),[8]; 0.5 L alcohol free beer (hordenine 2.5 mg/L),2320 L/h
same,time to reach Cmax,"[8]; 0.5 L alcohol free beer, from the beginning of beer consumption",25 min
same,Cmax,"[8]; human, plasma, oral, 1.25 mg, 0.5 L alcohol free beer (Heineken zero, hordenine 2.5 mg/L)",0.4 ng/mL
same,Vd/F,"[8]; human, plasma, oral, 1.25 mg, 0.5 L alcohol free beer (hordenine 2.5 mg/L), read-out: volume of distribution Vz/F",1810 L
